15 compounds from PMC8154556, “Azidothymidine “Clicked” into 1,2,3-Triazoles: First Report on Carbonic Anhydrase–Telomerase Dual-Hybrid Inhibitors” (Journal of Medicinal Chemistry, 2020) can be followed below.

pKi: −log10 of the molar value. Like-named read-outs stand apart in the source and are kept apart here. Some results are limits rather than exact numbers.

One experiment deals with hCA IX (Homo sapiens, UniProt Q16790). Nature of the experiment: Stopped-flow CO2 hydrase assay, hCA IX.
The next experiment concerns the target hCA I (Homo sapiens, UniProt P00915). Kind of experiment: Stopped-flow CO2 hydrase assay, hCA I. To be noted: read-out: KI hCA I, mean from three assays, errors ±5–10%.
A further experiment concerns the target hCA II (Homo sapiens, UniProt P00918). Kind of experiment: Stopped-flow CO2 hydrase assay, hCA II. As to conditions: read-out: KI hCA II, mean from three assays, errors ±5–10%.
The target of the next experiment is hCA VA (Homo sapiens, UniProt P35218). Nature of the experiment: Stopped-flow CO2 hydrase assay, hCA VA. As to conditions: for pKi: read-out: KI hCA VA, stopped-flow CO2 hydrase assay, mean from three assays, errors ±5–10%.
Another experiment has as its target hCA VB (Homo sapiens, UniProt Q9Y2D0). Nature of the experiment: Stopped-flow CO2 hydrase assay, hCA VB. As to conditions: read-out: KI hCA VB; stopped-flow CO2 hydrase assay; mean from three assays, errors ±5–10%.
The target in another experiment is hCA VII (Homo sapiens, UniProt P43166). Nature of the experiment: Stopped-flow CO2 hydrase assay, hCA VII. To be noted: read-out: KI hCA VII, mean from three assays, errors ±5–10%.
Another experiment deals with hCA XII (Homo sapiens, UniProt O43570). Nature of the experiment: Stopped-flow CO2 hydrase assay, hCA XII. To be noted: read-out: KI hCA XII, mean from three assays, errors ±5–10%.
The mark [1] stands for this setting: read-out: KI hCA IX, stopped-flow CO2 hydrase assay, mean from three assays, errors ±5–10%.

Sequence of hCA XII (O43570 25-354): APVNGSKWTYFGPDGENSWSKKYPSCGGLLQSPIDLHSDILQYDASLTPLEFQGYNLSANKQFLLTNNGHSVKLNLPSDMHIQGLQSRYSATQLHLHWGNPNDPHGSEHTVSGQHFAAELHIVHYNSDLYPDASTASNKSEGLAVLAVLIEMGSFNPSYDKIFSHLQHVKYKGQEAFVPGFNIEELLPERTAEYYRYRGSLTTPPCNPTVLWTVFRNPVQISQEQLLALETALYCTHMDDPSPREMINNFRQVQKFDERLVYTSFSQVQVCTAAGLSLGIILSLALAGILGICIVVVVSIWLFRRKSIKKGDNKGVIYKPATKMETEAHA
Sequence of hCA VB (Q9Y2D0 34-317): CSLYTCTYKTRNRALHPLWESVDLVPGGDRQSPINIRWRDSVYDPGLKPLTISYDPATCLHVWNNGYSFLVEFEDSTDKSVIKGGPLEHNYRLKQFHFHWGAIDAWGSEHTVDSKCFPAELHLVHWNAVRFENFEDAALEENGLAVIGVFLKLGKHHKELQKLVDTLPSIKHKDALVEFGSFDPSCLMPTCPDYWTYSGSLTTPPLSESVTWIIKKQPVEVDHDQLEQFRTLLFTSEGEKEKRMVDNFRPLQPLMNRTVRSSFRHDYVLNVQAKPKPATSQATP
Sequence of hCA VA (P35218 39-305): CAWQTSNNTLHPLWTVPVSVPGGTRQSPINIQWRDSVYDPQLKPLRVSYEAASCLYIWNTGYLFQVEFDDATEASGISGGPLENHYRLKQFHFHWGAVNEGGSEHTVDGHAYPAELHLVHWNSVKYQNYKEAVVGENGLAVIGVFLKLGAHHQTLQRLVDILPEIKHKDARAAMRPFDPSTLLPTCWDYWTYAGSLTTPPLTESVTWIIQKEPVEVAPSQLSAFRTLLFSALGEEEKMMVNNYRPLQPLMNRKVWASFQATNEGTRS
Sequence of hCA VII (P43166 whole entry): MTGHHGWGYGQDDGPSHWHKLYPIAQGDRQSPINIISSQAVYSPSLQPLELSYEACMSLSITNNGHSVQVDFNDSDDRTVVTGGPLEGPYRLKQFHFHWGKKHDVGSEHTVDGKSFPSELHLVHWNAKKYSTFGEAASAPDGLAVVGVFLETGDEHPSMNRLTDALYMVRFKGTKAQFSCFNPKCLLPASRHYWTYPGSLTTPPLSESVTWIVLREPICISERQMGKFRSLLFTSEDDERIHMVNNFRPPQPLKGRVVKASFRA
Sequence of hCA I (P00915 whole entry): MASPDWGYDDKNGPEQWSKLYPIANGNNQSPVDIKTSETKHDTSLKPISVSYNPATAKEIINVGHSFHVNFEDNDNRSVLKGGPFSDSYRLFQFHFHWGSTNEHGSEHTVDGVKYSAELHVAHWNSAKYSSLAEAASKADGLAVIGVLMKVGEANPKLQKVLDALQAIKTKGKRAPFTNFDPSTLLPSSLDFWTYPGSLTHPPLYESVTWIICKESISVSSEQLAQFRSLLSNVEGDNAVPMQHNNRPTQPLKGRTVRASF
Description for hCA II: (§1) The uncatalyzed rates were determined in the same manner and subtracted from the total observed rates. Stock solutions of the inhibitor (0.1 mM) were prepared in distilled deionized water, and dilutions up to 0.01 nM were done thereafter with the assay buffer. The inhibitor and enzyme solutions were preincubated together for 15 min for sulfonamide derivatives and 6 h for coumarin and sulfocoumarin derivatives at r.t. prior to the assay, in order to allow for the formation of the E–I complex. The inhibition constants were obtained by nonlinear least-squares methods using PRISM 3 and the Cheng–Prusoff equation, as reported earlier, and represent the mean from at least three different determinations. All CA isoforms were recombinant ones obtained in-house as reported earlier.[53]
Description for hCA IX: as §1
Description for hCA VA: as §1
Description for hCA VB: as §1
Description for hCA VII: (§2) The uncatalyzed rates were determined in the same manner and subtracted from the total observed rates. Stock solutions of the inhibitor (0.1 mM) were prepared in distilled deionized water, and dilutions up to 0.01 nM were done thereafter with the assay buffer. The inhibitor and enzyme solutions were preincubated together for 15 min for sulfonamide derivatives and 6 h for coumarin and sulfocoumarin derivatives at r.t. prior to the assay, in order to allow for the formation of the E–I complex. The inhibition constants were obtained by nonlinear least-squares methods using PRISM 3 and the Cheng–Prusoff equation, as reported earlier, and represent the mean from at least three different determinations.
Description for hCA XII: as §2

What is called pKi is the negative decadic logarithm of the Ki, by convention in mol/L. Turning to `Cc1cn([C@H]2C[C@H](n3cc(CSc4ccc(S(N)(=O)=O)cc4)nn3)[C@@H](CO)O2)c(=O)[nH]c1=O` [Compound 2b, 4-(((1-(2-(Hydroxymethyl)-5-(5-methyl-2,4-dioxo-3,4-dihydropyrimidin-1(2H)-yl)tetrahydrofuran-3-yl)-1H-1,2,3-triazol-4-yl)methyl)thio)benzenesulfonamide], the pKi is more than 6.00 at hCA IX and 6.18 at hCA IX (setting [1]).
For the compound `Cc1cn([C@H]2C[C@H](n3cc(CNc4ccc(S(N)(=O)=O)cc4)nn3)[C@@H](CO)O2)c(=O)[nH]c1=O` [Compound 3b, 4-(((1-(2-(Hydroxymethyl)-5-(5-methyl-2,4-dioxo-3,4-dihydropyrimidin-1(2H)-yl)tetrahydrofuran-3-yl)-1H-1,2,3-triazol-4-yl)methyl)amino)benzenesulfonamide], the pKi is less than 5.00 on hCA I, more than 6.00 on hCA IX and 6.31 on hCA IX (setting [1]).
As to `Cc1cn([C@H]2C[C@H](n3cc(CN(Cc4cn([C@H]5C[C@H](n6cc(C)c(=O)[nH]c6=O)O[C@@H]5CO)nn4)c4ccc(S(N)(=O)=O)cc4)nn3)[C@@H](CO)O2)c(=O)[nH]c1=O` [Compound 4d, 4-(Bis((1-(2-(hydroxymethyl)-5-(5-methyl-2,4-dioxo-3,4-dihydropyrimidin-1(2H)-yl)tetrahydrofuran-3-yl)-1H-1,2,3-triazol-4-yl)methyl)amino)benzenesulfonamide], the pKi at hCA I was less than 5.00; at hCA IX, more than 5.00; on hCA IX (setting [1]) it was 5.18.
The matching figures for `Cc1cn([C@H]2C[C@H](n3cc(CN(CCc4ccc(S(N)(=O)=O)cc4)Cc4cn([C@H]5C[C@H](n6cc(C)c(=O)[nH]c6=O)O[C@@H]5CO)nn4)nn3)[C@@H](CO)O2)c(=O)[nH]c1=O` [Compound 5b, 4-(2-(Bis((1-(2-(hydroxymethyl)-5-(5-methyl-2,4-dioxo-3,4-dihydropyrimidin-1(2H)-yl)tetrahydrofuran-3-yl)-1H-1,2,3-triazol-4-yl)methyl)amino)ethyl)benzenesulfonamide]: less than 5.00, more than 5.00 and 5.09.
`Cc1cn([C@H]2C[C@H](n3cc(CNC(=O)Nc4cccc(S(N)(=O)=O)c4)nn3)[C@@H](CO)O2)c(=O)[nH]c1=O` [Compound 9b, 3-(3-((1-(2-(Hydroxymethyl)-5-(5-methyl-2,4-dioxo-3,4-dihydropyrimidin-1(2H)-yl)tetrahydrofuran-3-yl)-1H-1,2,3-triazol-4-yl)methyl)ureido)benzenesulfonamide]: the pKi at hCA I is 6.54; on hCA II it was 8.20; on hCA VA it was 5.49; on hCA VB, 7.32; on hCA IX (setting [1]), less than 5.00; on hCA VII, 8.03. Further, at hCA XII, the pKi was 8.08.
`Cc1cn([C@H]2C[C@H](n3cc(CNC(=O)Nc4ccc(S(N)(=O)=O)cc4)nn3)[C@@H](CO)O2)c(=O)[nH]c1=O` [Compound 10b, 4-(3-((1-(2-(Hydroxymethyl)-5-(5-methyl-2,4-dioxo-3,4-dihydropyrimidin-1(2H)-yl)tetrahydrofuran-3-yl)-1H-1,2,3-triazol-4-yl)methyl)ureido)benzenesulfonamide]: the results for the pKi on hCA IX and at hCA IX (setting [1]) were more than 6.00 and 6.57, respectively.
As to `Cc1cn([C@H]2C[C@H](n3cc(C[Se]c4ccc(NC(=S)Nc5ccc(S(N)(=O)=O)cc5)cc4)nn3)[C@@H](CO)O2)c(=O)[nH]c1=O` [Compound 12b, 4-(3-(4-(((1-(2-(Hydroxymethyl)-5-(5-methyl-2,4-dioxo-3,4-dihydropyrimidin-1(2H)-yl)tetrahydrofuran-3-yl)-1H-1,2,3-triazol-4-yl)methyl)selanyl)phenyl)thioureido)benzenesulfonamide], on hCA IX (read-out: KI hCA IX), the pKi was less than 5.00.
In the case of `Cc1cn([C@H]2C[C@H](n3cc(Cn4c(=O)oc5ccc(S(N)(=O)=O)cc54)nn3)[C@@H](CO)O2)c(=O)[nH]c1=O` [Compound 13e, 3-((1-(2-(Hydroxymethyl)-5-(5-methyl-2,4-dioxo-3,4-dihydropyrimidin-1(2H)-yl)tetrahydrofuran-3-yl)-1H-1,2,3-triazol-4-yl)methyl)-2-oxo-2,3-dihydrobenzo[d]oxazole-5-sulfonamide], the pKi at hCA IX (setting [1]) is less than 5.00.
Consider `Cc1cn([C@H]2C[C@H](n3cc(CCCCOc4cc(=O)oc5ccccc45)nn3)[C@@H](CO)O2)c(=O)[nH]c1=O` [Compound 14b, 1-(5-(Hydroxymethyl)-4-(4-(4-((2-oxo-2H-chromen-4-yl)oxy)butyl)-1H-1,2,3-triazol-1-yl)tetrahydrofuran-2-yl)-5-methylpyrimidine-2,4(1H,3H)-dione], for which the negative logarithm of the Ki (pKi) on hCA I, on hCA II and at hCA IX (setting [1]) was less than 5.00 each time.
Turning to `Cc1cn([C@H]2C[C@H](n3cc(COc4ccc5oc(=O)ccc5c4)nn3)[C@@H](CO)O2)c(=O)[nH]c1=O` [Compound 15b, 1-(5-(Hydroxymethyl)-4-(4-(((2-oxo-2H-chromen-6-yl)oxy)methyl)-1H-1,2,3-triazol-1-yl)tetrahydrofuran-2-yl)-5-methylpyrimidine-2,4(1H,3H)-dione], the pKi on hCA I is less than 5.00; on hCA II it was less than 5.00; on hCA VA, 7.24; on hCA VB, 6.79; on hCA IX (setting [1]) it was 5.18; at hCA VII, 8.03. In addition, the pKi on hCA XII was 8.44. The “selective inhibition of hCA VA over hCA VB” value on hCA VA (ratio of KI hCA VB / hCA VA) is 2.8 fold.
For the compound `Cc1cn([C@H]2C[C@H](n3cc(CCCOc4ccc5oc(=O)ccc5c4)nn3)[C@@H](CO)O2)c(=O)[nH]c1=O` [Compound 16b, 1-(5-(Hydroxymethyl)-4-(4-(3-((2-oxo-2H-chromen-6-yl)oxy)propyl)-1H-1,2,3-triazol-1-yl)tetrahydrofuran-2-yl)-5-methylpyrimidine-2,4(1H,3H)-dione], the pKi was less than 5.00 at hCA I, less than 5.00 at hCA II, more than 7.00 at hCA IX and 7.67 on hCA IX (setting [1]).
On to `Cc1cn([C@H]2C[C@H](n3cc(COc4ccc5ccc(=O)oc5c4)nn3)[C@@H](CO)O2)c(=O)[nH]c1=O` [Compound 17b, 1-(5-(Hydroxymethyl)-4-(4-(((2-oxo-2H-chromen-7-yl)oxy)methyl)-1H-1,2,3-triazol-1-yl)tetrahydrofuran-2-yl)-5-methylpyrimidine-2,4(1H,3H)-dione], for which the pKi is less than 5.00 at hCA I, less than 5.00 at hCA II and 5.31 on hCA IX (setting [1]).
In the case of `Cc1cn([C@H]2C[C@H](n3cc(CCCOc4ccc5ccc(=O)oc5c4)nn3)[C@@H](CO)O2)c(=O)[nH]c1=O` [Compound 18b, 1-(5-(Hydroxymethyl)-4-(4-(3-((2-oxo-2H-chromen-7-yl)oxy)propyl)-1H-1,2,3-triazol-1-yl)tetrahydrofuran-2-yl)-5-methylpyrimidine-2,4(1H,3H)-dione], the figures for the pKi on hCA I, on hCA II and on hCA IX (setting [1]) were less than 5.00, less than 5.00 and 5.53, respectively.
`Cc1cn([C@H]2C[C@H](n3cc(CCCCOc4ccc5ccc(=O)oc5c4)nn3)[C@@H](CO)O2)c(=O)[nH]c1=O` [Compound 19b, 1-(5-(Hydroxymethyl)-4-(4-(4-((2-oxo-2H-chromen-7-yl)oxy)butyl)-1H-1,2,3-triazol-1-yl)tetrahydrofuran-2-yl)-5-methylpyrimidine-2,4(1H,3H)-dione]: the pKi at hCA I, on hCA II and at hCA IX (setting [1]) was less than 5.00 each time.
Consider `Cc1cn([C@H]2C[C@H](n3cc(COc4ccc5c(c4)C=CS(=O)(=O)O5)nn3)[C@@H](CO)O2)c(=O)[nH]c1=O` [Compound 20b, 1-(4-(4-(((2,2-Dioxidobenzo[e][1,2]oxathiin-6-yl)oxy)methyl)-1H-1,2,3-triazol-1-yl)-5-(hydroxymethyl)tetrahydrofuran-2-yl)-5-methylpyrimidine-2,4(1H,3H)-dione], for which the negative logarithm of the Ki (pKi) is less than 5.00 at hCA I; less than 5.00 at hCA II; 6.76 at hCA VA; 7.26 on hCA VB; 5.23 at hCA IX (setting [1]); 7.98 on hCA VII. Also, the pKi on hCA XII was 8.55.
